Laboratory results as given in patent US12024531B2, “Immunoproteasome inhibitors” (Principia Biopharma Inc., priority 2017, dated 2024).

Legend:
[1] = molecular target: immunoproteasome LMP7/B5i subunit (Homo sapiens, UniProt P28062); assay: Caliper-based proteasome enzymatic activity assay, LMP7; type: biochemical; conditions: human recombinant immunoproteasome 0.3 nM, FAM peptide substrate 1 μM, rt 3 h
[2] = molecular target: constitutive proteasome β5c subunit (Homo sapiens, UniProt P28074); assay: Caliper-based proteasome enzymatic activity assay, β5c; type: biochemical; conditions: human recombinant constitutive proteasome 0.3 nM, FAM peptide substrate 1 μM, rt 3 h
[3] = molecular target: immunoproteasome LMP2 subunit (Homo sapiens, UniProt P28065); assay: Caliper-based proteasome enzymatic activity assay, LMP2; type: biochemical; conditions: human recombinant immunoproteasome 0.3 nM, FAM peptide substrate 1 μM, rt 2 h
PBMC LMP7 = PBMC LMP7 (Homo sapiens, UniProt P28062); assay: Inhibition of proteasome activity in cells (Proteasome-Glo), PBMC/LMP7; type: cell-based; conditions: 2 h incubation at 37° C.
Protocol: The cell-based effects of a compound described herein on the immunoproteasome were determined by measuring inhibition of proteasome activity in cells using the Proteasome-Glo™ Cell-Based Reagent (Promega, Madison WI). The Proteasome-Glo™ assay contains a specific luminogenic proteasome substrate in a buffer optimized for cell permeabilization, proteasome activity, and luciferase activity. For the chymotrypsin-like activity (LMP7 and 05c), the peptide substrate is Suc-LLVY-aminoluciferin (Succinyl-leucine-leucine-valine-tyrosine-aminoluciferin). Cleavage of the substrate by proteasome results in luminescent signal which is proportional to the proteasome activity. The cell line THP-1 (a monocytic leukemia cell line enriched in immunoproteasome), the cell line HT-29 (a colorectal adenocarcinoma cell line enriched in constitutive proteasome), and primary human peripheral blood mononuclear cells (PBMC) were used to assess proteasome activity. Cells were seeded in a 96-well plate at 10,000 cells per well in RPMI 1640 high glucose medium with 10% fetal bovine serum (FBS). Compound dilutions were added to cells starting at a concentration of 5 uM and decreasing in tripling dilutions. The final DMSO concentration was 1%. The concentration range was adjusted as needed for compounds of different potencies. The cells treated with compounds were incubated for 2 h at 37° C. in 5% CO2. At the end of the 2 hour incubation period, cells were transferred to white 384 well assay plates. 20 uL of Proteasome-Glo™ Reagent was added to each well and incubated for 10 minutes at rt. The plate was read in the Analyst HT instrument (Molecular Devices, Sunnyvale, CA) using luminescence mode. The percent inhibition of activity was plotted as a function of log compound concentration. The IC50 was then calculated for each compound using Prism software from GraphPad Software Inc. (San Diego, CA).

IC50 [1] [nM] | IC50 [2] [nM] | IC50 [3] [nM] | IC50 (PBMC LMP7) [nM] | SMILES
1.5 | 1090 | > 5000 | 4 | Cc1ccc(C[C@H](NC(=O)OCCc2cccc(C=C(C#N)C(=O)N(C)C)c2)B(O)O)cc1 [Example 50, (R)-(1-(((3-(2-cyano-3-(dimethylamino)-3-oxoprop-1-en-1-yl)phenethoxy)carbonyl)amino)-2-(p-tolyl)ethyl)boronic Acid]
10.3 | > 5000 | > 5000 | 44 | CCN(CC)C(=O)C(C#N)=Cc1cccc(CCOC(=O)N[C@@H](Cc2ccccc2)B(O)O)c1 [Example 52, (R)-(1-(((3-(2-cyano-3-(diethylamino)-3-oxoprop-1-en-1-yl)phenethoxy)carbonyl)amino)-2-phenylethyl)boronic Acid]
3.3 | 610 | > 5000 | 4 | N#CC(=Cc1cccc(CCOC(=O)N[C@@H](Cc2ccccc2)B(O)O)c1)c1ncccc1F [Example 54, (R)-(1-(((3-(2-cyano-2-(3-fluoropyridin-2-yl)vinyl)phenethoxy)carbonyl)amino)-2-phenylethyl)boronic Acid]
2 | 1180 | > 5000 | 4 | CCN(CC)C(=O)C(C#N)=Cc1cccc(CCOC(=O)N[C@@H](Cc2ccc(C)cc2)B(O)O)c1 [Example 55, (R)-(1-(((3-(2-cyano-3-(diethylamino)-3-oxoprop-1-en-1-yl)phenethoxy)carbonyl)amino)-2-(p-tolyl)ethyl)boronic Acid]
24 | > 5000 | > 5000 | – | CCN(CC)C(=O)C(C#N)=Cc1cccc(CCNC(=O)N[C@@H](Cc2ccc(C)cc2)B(O)O)c1 [Example 82, (R)-(1-(3-(3-(2-cyano-3-(diethylamino)-3-oxoprop-1-en-1-yl)phenethyl)ureido)-2-(p-tolyl)ethyl)boronic Acid]
1.9 | 240 | 2020 | – | Cn1cnc(C(C#N)=Cc2cccc(CCOC(=O)N[C@@H](Cc3ccccc3)B(O)O)c2)cc1=O [Example 84, (R)-(1-(((3-(2-cyano-2-(1-methyl-6-oxo-1,6-dihydropyrimidin-4-yl)vinyl)phenethoxy)carbonyl)amino)-2-phenylethyl)boronic Acid]
0.9 | 779 | > 5000 | – | CCN(CC)C(=O)C(C#N)=Cc1cccc(CCOC(=O)N[C@@H](Cc2ccc(Cl)cc2)B(O)O)c1 [Example 86, (R)-(2-(4-chlorophenyl)-1-(((3-(2-cyano-3-(diethylamino)-3-oxoprop-1-en-1-yl)phenethoxy)carbonyl)amino)ethyl)boronic Acid]
1.2 | 802 | > 5000 | – | CCN(C(=O)C(C#N)=Cc1cccc(CCOC(=O)N[C@@H](Cc2ccc(C)cc2)B(O)O)c1)C1CCOCC1 [Example 88, (R)-(1-(((3-(2-cyano-3-(ethyl(tetrahydro-2H-pyran-4-yl)amino)-3-oxoprop-1-en-1-yl)phenethoxy)carbonyl)amino)-2-(p-tolyl)ethyl)boronic Acid]
4.6 | > 5000 | > 5000 | – | CCN(C)C(=O)C(C#N)=Cc1cccc(CCOC(=O)N[C@@H](Cc2ccccc2)B(O)O)c1 [Example 90, (R)-(1-(((3-(2-cyano-3-(ethyl(methyl)amino)-3-oxoprop-1-en-1-yl)phenethoxy)carbonyl)amino)-2-phenylethyl)boronic Acid]
2.3 | 3840 | > 5000 | – | CN(CC(F)(F)F)C(=O)C(C#N)=Cc1cccc(CCOC(=O)N[C@@H](Cc2ccccc2)B(O)O)c1 [Example 91, (R)-(1-(((3-(2-cyano-3-(methyl(2,2,2-trifluoroethyl)amino)-3-oxoprop-1-en-1-yl)phenethoxy)carbonyl)amino)-2-phenylethyl)boronic Acid]
0.6 | 440 | > 5000 | – | CCN(CC)C(=O)C(C#N)=Cc1cc(C#N)cc(CCOC(=O)N[C@@H](Cc2ccc(C)cc2)B(O)O)c1 [Example 101, (R)-(1-(((3-cyano-5-(2-cyano-3-(diethylamino)-3-oxoprop-1-en-1-yl)phenethoxy)carbonyl)amino)-2-(p-tolyl)ethyl)boronic Acid]

More lines, now with the values behind:

SMILES | IC50 [1] [nM] | IC50 [2] [nM] | IC50 [3] [nM] | IC50 (PBMC LMP7) [nM]
N#CC(=Cc1cccc(OCCC(=O)N[C@@H](CCc2ccccc2)B(O)O)c1)c1ccccn1 [Example 21, (R)-(1-(3-(3-(2-cyano-2-(pyridin-2-yl)vinyl)phenoxy)propanamido)-3-phenylpropyl)boronic Acid] | 27 | 260 | > 5000 | 8
N#CC(=Cc1cccc(CCOC(=O)N[C@@H](Cc2coc3ccccc23)B(O)O)c1)c1ccccn1 [Example 35, (R)-(2-(benzofuran-3-yl)-1-(((3-(2-cyano-2-(pyridin-2-yl)vinyl)phenethoxy)carbonyl)amino)ethyl)boronic Acid] | 2 | 66 | > 5000 | 3
Cc1ccc(C[C@H](NC(=O)NCCc2cccc(C=C(C#N)c3ccc(C(F)(F)F)cn3)c2)B(O)O)cc1 [Example 80, (R)-(1-(3-(3-(2-cyano-2-(5-(trifluoromethyl)pyridin-2-yl)vinyl)phenethyl)ureido)-2-(p-tolyl)ethyl)boronic Acid] | 43 | 2570 | > 5000 | –
Cc1ccc(C[C@H](NC(=O)OCCc2cccc(C=C(C#N)c3ccc(C(F)(F)F)cn3)c2)B(O)O)cc1 [Example 81, (R)-(1-(((3-(2-cyano-2-(5-(trifluoromethyl)pyridin-2-yl)vinyl)phenethoxy)carbonyl)amino)-2-(p-tolyl)ethyl)boronic Acid] | 5.2 | 438 | 2830 | –
Cc1ccc(C[C@H](NC(=O)NCCc2cccc(C=C(C#N)c3ncccn3)c2)B(O)O)cc1 [Example 83, (R)-(1-(3-(3-(2-cyano-2-(pyrimidin-2-yl)vinyl)phenethyl)ureido)-2-(p-tolyl)ethyl)boronic Acid] | 37 | 1970 | > 5000 | –
Cc1ccc(C[C@H](NC(=O)OCCc2cccc(C=C(C#N)C(=O)N3[C@H](C)COC[C@H]3C)c2)B(O)O)cc1 [Example 85, ((R)-1-(((3-(2-cyano-3-((3R,5R)-3,5-dimethylmorpholino)-3-oxoprop-1-en-1-yl)phenethoxy)carbonyl)amino)-2-(p-tolyl)ethyl)boronic Acid] | 1.1 | 1170 | > 5000 | –
Cc1ccc(C[C@H](NC(=O)OCCc2cccc(C=C(C#N)c3ncccn3)c2)B(O)O)cc1 [Example 87, (R)-(1-(((3-(2-cyano-2-(pyrimidin-2-yl)vinyl)phenethoxy)carbonyl)amino)-2-(p-tolyl)ethyl)boronic Acid] | 1.6 | 197 | > 5000 | –
Cc1ccc(C[C@H](NC(=O)OCCc2cccc(C=C(C#N)C(=O)N3C4CCC3COC4)c2)B(O)O)cc1 [Example 89, ((1R)-1-(((3-(3-(3-oxa-8-azabicyclo[3.2.1]octan-8-yl)-2-cyano-3-oxoprop-1-en-1-yl)phenethoxy)carbonyl)amino)-2-(p-tolyl)ethyl)boronic Acid] | 0.5 | 869 | > 5000 | –
Cc1ccc(C[C@H](NC(=O)OCCc2cccc(C=C(C#N)C(=O)N3[C@@H](C)COC[C@@H]3C)c2)B(O)O)cc1 [Example 92, ((R)-1-(((3-(2-cyano-3-((3S,5S)-3,5-dimethylmorpholino)-3-oxoprop-1-en-1-yl)phenethoxy)carbonyl)amino)-2-(p-tolyl)ethyl)boronic Acid] | 0.6 | 532 | > 5000 | –
CC1(C)COCCN1C(=O)C(C#N)=Cc1cccc(CCOC(=O)N[C@@H](Cc2coc3ccccc23)B(O)O)c1 [Example 93, (R)-(2-(benzofuran-3-yl)-1-(((3-(2-cyano-3-(3,3-dimethylmorpholino)-3-oxoprop-1-en-1-yl)phenethoxy)carbonyl)amino)ethyl)boronic Acid] | 1.1 | 45 | > 5000 | –
N#CC(=Cc1cccc(CCNC(=O)N[C@@H](Cc2coc3ccccc23)B(O)O)c1)c1ncccn1 [Example 94, (R)-(2-(benzofuran-3-yl)-1-(3-(3-(2-cyano-2-(pyrimidin-2-yl)vinyl)phenethyl)ureido)ethyl)boronic Acid] | 2.2 | 15 | > 5000 | –
